In ChEMBL document CHEMBL1142226, “Impact of physicochemical and structural properties on the pharmacokinetics of a series of alpha1L-adrenoceptor antagonists” (Drug Metab Dispos, 2007):

Experiments:
[1] = Metabolic stability in Sprague-Dawley rat assessed as hepatic extraction ratio; format: ADME, tissue-based; conditions: liver
[2] = Metabolic stability in Sprague-Dawley rat liver microsomes assessed as half life; format: ADME, Microsome
[3] = Metabolic stability in Sprague-Dawley rat bile assessed as drug remaining; format: ADME
Canis familiaris [4] = test: Unbound volume of distribution in Beagle dog at 0.5 mg/kg, iv; format: ADME, organism-based, Canis lupus familiaris; parameters: dose 0.5 mg/kg, route intravenous; conditions: in vivo
[5] = Plasma clearance in Beagle dog at 0.5 mg/kg, iv; format: ADME, organism-based, Canis lupus familiaris; parameters: dose 0.5 mg/kg, route intravenous
[6] = Metabolic stability in human liver microsomes assessed as half life at 1 uM; format: ADME, Microsome
Liver = test: Unbound intrinsic clearance in Beagle dog liver microsomes at 1 uM; format: ADME, Canis lupus familiaris, Microsome
[7] = Oral absorption in Beagle dog at 0.5 mg/kg, po; format: ADME, organism-based, Canis lupus familiaris; parameters: dose 0.5 mg/kg, route oral; conditions: in vivo, read-out: Fabs
[8] = Dissociation constant, pKa of the compound; format: physicochemical
[9] = Lipophilicity, log D in 0.1M potassium phosphate buffer at pH 7.4; format: physicochemical
Canis familiaris [10] = test: Unbound plasma clearance in Beagle dog at 0.5 mg/kg, iv; format: ADME, organism-based, Canis lupus familiaris; parameters: dose 0.5 mg/kg, route intravenous; conditions: in vivo
[11] = Protein binding in Beagle dog plasma at 1 ug/ml; format: ADME, cell-free, Canis lupus familiaris; conditions: read-out: PPB (converted)
[12] = Fraction unbound in Beagle dog liver microsomes at 1 uM; format: ADME, Canis lupus familiaris, Microsome
[13] = Elimination half life in Beagle dog at 0.5 mg/kg, iv; format: ADME, organism-based, Canis lupus familiaris; parameters: dose 0.5 mg/kg, route intravenous; conditions: in vivo
[14] = Oral bioavailability in Beagle dog at 0.5 mg/kg; format: ADME, organism-based, Canis lupus familiaris; conditions: in vivo
[15] = Volume of distribution in Beagle dog at 0.5 mg/kg, iv; format: ADME, organism-based, Canis lupus familiaris; parameters: dose 0.5 mg/kg, route intravenous; conditions: in vivo
Liver microsomes = test: Unbound intrinsic clearance in human liver microsomes at 1 uM; format: ADME, Microsome
[16] = Fraction unbound in human liver microsomes at 1 uM; format: ADME, Microsome
[17] = Metabolic stability in Beagle dog liver microsomes assessed as half life at 1 uM; format: ADME, Canis lupus familiaris, Microsome
[18] = Oral absorption in Beagle dog at 2 mg/kg, po; format: ADME, organism-based, Canis lupus familiaris; parameters: dose 2 mg/kg, route oral; conditions: in vivo, read-out: Fabs
[19] = Oral bioavailability in Beagle dog at 2 mg/kg; format: ADME, organism-based, Canis lupus familiaris; conditions: in vivo
[20] = Oral bioavailability in human at 0.25 to 1.5 mg/kg; format: ADME, organism-based; conditions: in vivo
[21] = Plasma clearance in Beagle dog at 0.3 mg/kg, iv; format: ADME, organism-based, Canis lupus familiaris; parameters: dose 0.3 mg/kg, route intravenous
Canis familiaris [22] = test: Unbound volume of distribution in Beagle dog at 0.3 mg/kg, iv; format: ADME, organism-based, Canis lupus familiaris; parameters: dose 0.3 mg/kg, route intravenous; conditions: in vivo
[23] = Cmax in human at 0.02 mg/kg, po; format: ADME, organism-based; parameters: dose 0.02 mg/kg, route oral; conditions: in vivo
[24] = Protein binding in Sprague-Dawley rat plasma at 1 ug/ml; format: ADME, cell-free; conditions: read-out: PPB (converted)
[25] = Elimination half life in Beagle dog at 0.3 mg/kg, iv; format: ADME, organism-based, Canis lupus familiaris; parameters: dose 0.3 mg/kg, route intravenous; conditions: in vivo
[26] = Elimination half life in Sprague-Dawley rat at 1 mg/kg, po; format: ADME, organism-based; parameters: dose 1 mg/kg, route oral; conditions: in vivo
[27] = Tmax in human at 0.02 mg/kg, po; format: ADME, organism-based; parameters: dose 0.02 mg/kg, route oral; conditions: in vivo
[28] = Plasma clearance in Sprague-Dawley rat at 0.5 mg/kg, iv; format: ADME, organism-based; parameters: dose 0.5 mg/kg, route intravenous
Rattus norvegicus = test: Unbound volume of distribution in Sprague-Dawley rat at 0.5 mg/kg, iv; format: ADME, organism-based; parameters: dose 0.5 mg/kg, route intravenous; conditions: in vivo
[29] = Volume of distribution in Sprague-Dawley rat at 0.5 mg/kg, iv; format: ADME, organism-based; parameters: dose 0.5 mg/kg, route intravenous; conditions: in vivo
[30] = Elimination half life in Sprague-Dawley rat at 0.5 mg/kg, iv; format: ADME, organism-based; parameters: dose 0.5 mg/kg, route intravenous; conditions: in vivo
[31] = Elimination half life in human at 0.02 mg/kg, po; format: ADME, organism-based; parameters: dose 0.02 mg/kg, route oral; conditions: in vivo
[32] = Oral bioavailability in Beagle dog at 0.6 mg/kg; format: ADME, organism-based, Canis lupus familiaris; conditions: in vivo
[33] = Volume of distribution in Beagle dog at 0.3 mg/kg, iv; format: ADME, organism-based, Canis lupus familiaris; parameters: dose 0.3 mg/kg, route intravenous; conditions: in vivo
Homo sapiens = species: Homo sapiens; test: Protein binding in human plasma at 1 ug/ml; conditions: read-out: PPB (converted)
[34] = Oral absorption in Beagle dog at 0.6 mg/kg, po; format: ADME, organism-based, Canis lupus familiaris; parameters: dose 0.6 mg/kg, route oral; conditions: in vivo, read-out: Fabs
[35] = Oral bioavailability in Sprague-Dawley rat at 1 mg/kg; format: ADME, organism-based; conditions: in vivo
[36] = Cmax in Sprague-Dawley rat at 1 mg/kg, po; format: ADME, organism-based; parameters: dose 1 mg/kg, route oral; conditions: in vivo
[37] = Tmax in Sprague-Dawley rat at 1 mg/kg, po; format: ADME, organism-based; parameters: dose 1 mg/kg, route oral; conditions: in vivo
[38] = Antagonist activity at alpha-1-adrenoceptor in rat aorta assessed as inhibition of noradrenaline-mediated contraction; format: functional, tissue-based
[39] = Antagonist activity at alpha-1L-adrenoceptor in human prostate assessed as inhibition of noradrenaline-mediated contraction; format: functional, tissue-based, Prostate gland

Compound	hepatic extraction ratio [1]	half-life [2] [h]	Stability [3] [%]	Vd (Canis familiaris [4]) [L/kg]	clearance [5] [mL/min/kg]	half-life at 1 µM [6] [h]	CL (Liver) [mL/min/kg]	pKa [8]	logD [9]	CL (Canis familiaris [10]) [mL/min/kg]	fraction unbound at 1 ug/ml [11]	fraction unbound at 1 µM [12]	half-life [13] [h]	Vd [15] [L/kg]	CL (Liver microsomes) [mL/min/kg]	fraction unbound at 1 µM [16]	half-life at 1 µM [17] [h]	other results
COc1cc2c(cc1OC)CN(c1cc(N3CCCN(C(=O)N4CC(O)C(O)C4)CC3)nc3cc(OC)c(OC)cc13)CC2 (centres undefined)	0.8	> 2	90															
COc1cc2nc(N3CCCN(C(=O)N4CCOCC4)CC3)cc(N)c2c(-c2ccccc2)c1OC				23	8.8	0.15	122	8.5	1.8	88	0.12	0.59	3.6	2.8	82	0.414	0.417	Fa [7]: 29%; bioavailability [14]: 24%
COc1cc2nc(N3CCCN(C(=O)N4CCOCC4)CC3)nc(N)c2c(-c2ccccn2)c1OC				4	20	0.15	41	6.9	1.5	60	0.56	0.939	1.6	2.2	34	1	0.767	Fa [18]: 100%; bioavailability [19]: 63%
COc1cc2nc(N3CCCN(C(=O)N4CC(O)C(O)C4)CC3)nc(Nc3ccccn3)c2cc1OC (centres undefined)	0.7	> 2	100															
COc1cc2nc(N3CCc4c(cccc4NS(C)(=O)=O)C3)nc(N)c2c(-c2ccccn2)c1OC [TAPRIZOSIN]						0.683	83	6.7	3		0.21	0.602			13	0.564	0.5	bioavailability [20]: 73%; clearance [21]: 5.6 mL/min/kg; Vd (Canis familiaris [22]): 21 L/kg; Cmax [23]: 7.5 ng/mL; fraction unbound at 1 ug/ml [24]: 0.07; half-life [25]: 9.2 h; half-life [26]: 2.9 h; Tmax [27]: 1.3 h; clearance [28]: 22 mL/min/kg; Vd (Rattus norvegicus): 24 L/kg; Vd [29]: 1.7 L/kg; half-life [30]: 1 h; half-life [31]: 11.4 h; bioavailability [32]: 79%; Vd [33]: 4.4 L/kg; fraction unbound at 1 ug/ml (Homo sapiens): 0.07; Fa [34]: 89%; bioavailability [35]: 42%; Cmax [36]: 105 ng/mL; Tmax [37]: 0.5 h
COc1cc2nc(N3CCN(C(=O)C4CCCO4)CC3)nc(N)c2cc1OC (centres undefined) [TERAZOSIN]																		pA2 [38]: 10; pA2 [39]: 9.8
